Measurements: patent publication US9993564B2, “Blood brain barrier shuttle” (Hoffmann-La Roche Inc., priority 2014, dated 2018)

Tests used:
[1] = in vivo phage display selection (4 rounds) with CSF sampling, sequencing of CSF recovered phage clones; set-up: species or system rat; settings: for Reads: CSF recovered phage clones after 4 rounds of in vivo selection in rats, 924 sequencing in total; for Frequency (%): frequency of each peptide related to the 924 total sequencing runs, CSF, after 4 rounds of in vivo selection in rats
[2] = test system: brain blood vessels and capillaries; assay: immunohistochemistry of intravenously administered phage clones bound to brain vasculature; assay type: in vivo; settings: FIG. 5, no staining with empty phage
From the text: Specific phage clones were intravenously administered to allow targeting in vivo. Subsequently, immunohistochemistry was used to detect the phages specifically bound to the brain blood vessels and capillaries. […] ID. NO. 1, SEQ. ID. NO. 6 and SEQ. ID. NO.
ID. NO. 8 is linked to SA through an N-terminal biotin. […] ID. NO.

1 (LYVLHSRGLWGFKL; Brain targeting peptide) [compound 1]
Reads [1]: 147
Frequency (%) [1]: 15.9%

2 (LGSVS; Brain targeting peptide) [compound 2]
Reads [1]: 137
Frequency (%) [1]: 14.8%

3 (GFVRFRLSNTR; Brain targeting peptide) [compound 3]
Reads [1]: 115
Frequency (%) [1]: 12.4%

4 (KVAWRVFSLFWK; Brain targeting peptide) [compound 4]
Reads [1]: 57
Frequency (%) [1]: 6.1%

5 (SVHGV; Brain targeting peptide) [compound 5]
Reads [1]: 40
Frequency (%) [1]: 6.1%

6 (GRPQKINGARVC; Brain targeting peptide) [compound 6]
Reads [1]: 29
Frequency (%) [1]: 4.3%

7 (MRWFFSHASQGR; Brain targeting peptide) [compound 7]
Reads [1]: 28
Frequency (%) [1]: 3.1%

8 (RLSSVDSDLSGC; Brain targeting peptide) [compound 8]
Reads [1]: 26
Frequency (%) [1]: 3.0%

9 (IGTLTT; Brain targeting peptide) [compound 9]
Reads [1]: 22
Frequency (%) [1]: 2.8%

10 (YNQSLLQGYRYW; Brain targeting peptide) [compound 10]
Reads [1]: 21
Frequency (%) [1]: 2.3%

11 (RSTASTSYPFFF; Brain targeting peptide) [compound 11]
Reads [1]: 17
Frequency (%) [1]: 2.2%

12 (ISNRSHKGLMVG; Brain targeting peptide) [compound 12]
Reads [1]: 16
Frequency (%) [1]: 1.8%

13 (DAAESVLVGTVR; Brain targeting peptide) [compound 13]
Reads [1]: 15
Frequency (%) [1]: 1.7%

14 (YAWGGGWVLQWF; Brain targeting peptide) [compound 14]
Reads [1]: 12
Frequency (%) [1]: 1.6%

15 (YSMVFVGIKL; Brain targeting peptide) [compound 15]
Reads [1]: 10
Frequency (%) [1]: 1.2%

16 (DVAKVS; Brain targeting peptide) [compound 16]
Reads [1]: 10
Frequency (%) [1]: 1.0%

17 (RRPAPLIMFRMI; Brain targeting peptide) [compound 17]
Reads [1]: 9
Frequency (%) [1]: 1.0%

18 (DPQILMGVLRSIRGFGVKL; Brain targeting peptide) [compound 18]
Reads [1]: 9
Frequency (%) [1]: 0.9%

19 (SRYSIGGNNGVT; Brain targeting peptide) [compound 19]
Reads [1]: 7
Frequency (%) [1]: 0.9%

20 (SGSGIGLDRWRV; Brain targeting peptide) [compound 20]
Reads [1]: 7
Frequency (%) [1]: 0.7%

21 (WGCNGTEWRGLLGIKL; Brain targeting peptide) [compound 21]
Reads [1]: 6
Frequency (%) [1]: 0.7%

22 (NSHAMSC; Brain targeting peptide) [compound 22]
Reads [1]: 5
Frequency (%) [1]: 0.6%

23 (STVVCFKGVPTG; Brain targeting peptide) [compound 23]
Reads [1]: 5
Frequency (%) [1]: 0.5%

24 (TWLFSLG; Brain targeting peptide) [compound 24]
Reads [1]: 4
Frequency (%) [1]: 0.5%

25 (LPGGSPGHILVC; Brain targeting peptide) [compound 25]
Reads [1]: 4
Frequency (%) [1]: 0.4%

26 (GWIPYDGGNRAR; Brain targeting peptide) [compound 26]
Reads [1]: 4
Frequency (%) [1]: 0.4%

27 (STMRYVGVTCL; Brain targeting peptide) [compound 27]
Reads [1]: 3
Frequency (%) [1]: 0.4%

28 (GCASPASTSFHS; Brain targeting peptide) [compound 28]
Reads [1]: 3
Frequency (%) [1]: 0.3%

29 (LRPRGAFQRRDFKL; Brain targeting peptide) [compound 29]
Reads [1]: 3
Frequency (%) [1]: 0.3%

30 (ELVHA; Brain targeting peptide) [compound 30]
Reads [1]: 3
Frequency (%) [1]: 0.3%

31 (FLIQWGAVLSRG; Brain targeting peptide) [compound 31]
Reads [1]: 2
Frequency (%) [1]: 0.3%

32 (VRDWAYVYSTVL; Brain targeting peptide) [compound 32]
Reads [1]: 2
Frequency (%) [1]: 0.2%

33 (TAVFSALSMLRG; Brain targeting peptide) [compound 33]
Reads [1]: 2
Frequency (%) [1]: 0.2%

34 (AVES; Brain targeting peptide) [compound 34]
Reads [1]: 2
Frequency (%) [1]: 0.2%

35 (RPRAQGAL; Brain targeting peptide) [compound 35]
Reads [1]: 2
Frequency (%) [1]: 0.2%

36 (LWVSVPRARIIQ; Brain targeting peptide) [compound 36]
Reads [1]: 2
Frequency (%) [1]: 0.2%

GRPQKINGARVC [SEQ. ID. NO. 6]
staining at brain capillaries in the cortex (immunohistochemistry) [2]: strong and specific staining

LYVLHSRGLWGFKL (displayed on T7 phage; Brain targeting peptide) [SEQ. ID. NO. 1]
staining at brain capillaries in the cortex (immunohistochemistry) [2]: strong and specific staining
